Measurements taken from patent US6399782B1, “Benzimidazole inhibitors of fructose 1,6-bisphosphatase” (Metabasis Therapeutics, Inc., priority 1997, dated 2002).
Where a name gives a salt, the structure may show the parent alone.

What was measured:
[1] = Estimation of the oral bioavailability of prodrugs of phosphonic acids; format: in vivo; details: rat; for % Oral bioavailability: prodrug by oral gavage approximately 20 or 40 mg/kg parent equivalents, urinary recovery of parent vs i.v. parent
Method: Prodrugs were dissolved in 10% ethanol/90% polyethylene glycol (mw 400) and administered by oral gavage at doses of approximately 20 or 40 mg/kg parent compound equivalents to 6-hour fasted, Sprague Dawley rats (220-240 g). The rats were subsequently placed in metabolic cages and urine was collected for 24 hours. The quantity of parent compound excreted into urine was determined by HPLC analysis. An ODS column eluted with a gradient from potassium phosphate buffer, pH 5.5 to acetonitrile was employed for these measurements. Detection was at 310-325 nm. […] Parent compounds were typically dissolved in dimethyl sulfoxide, and administered via the tail vein in animals that were briefly anesthetized with halothane.

mouse liver FBPase = target: T1, mouse liver FBPase (Mus musculus, UniProt Q9QXD6); assay: Inhibition of mouse liver FBPase; format: biochemical; details: partially purified mouse liver fraction
T1 construct: This partially purified fraction was used for enzyme assays; from tissue; host or cells: mouse liver, 45-75% ammonium sulfate fraction
T1 sequence (Q9QXD6 2-338 limits assumed): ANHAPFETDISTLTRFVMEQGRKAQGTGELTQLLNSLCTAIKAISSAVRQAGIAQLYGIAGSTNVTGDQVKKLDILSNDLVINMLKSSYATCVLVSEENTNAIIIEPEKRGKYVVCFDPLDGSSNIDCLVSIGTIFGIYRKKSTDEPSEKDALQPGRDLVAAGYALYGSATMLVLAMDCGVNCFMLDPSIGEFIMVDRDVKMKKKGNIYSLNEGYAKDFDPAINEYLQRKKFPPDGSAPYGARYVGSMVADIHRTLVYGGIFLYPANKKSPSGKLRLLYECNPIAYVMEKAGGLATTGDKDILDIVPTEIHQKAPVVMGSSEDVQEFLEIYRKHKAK
Method: Enzymatic activity was measured spectrophotometrically in reactions that coupled the formation of product (fructose 6-phosphate) to the reduction of dimethylthiazoldiphenyltetrazolium bromide (MTT) via NADP and phenazine methosulfate (PMS), using phosphoglucose isomerase and glucose 6-phosphate dehydrogenase as the coupling enzymes. Reaction mixtures (200 μl) were made up in 96-well microtitre plates, and consisted of 50 mM Tris-HCl, pH 7.4, 100 mM KCl, 5 mM EGTA, 2 mM MgCl2, 0.2 mM NADP, 1 mg/ml BSA, 1 mM MTT, 0.6 mM PMS, 1 unit/mL phosphoglucose isomerase, 2 units/mL glucose 6-phosphate dehydrogenase, and 0.150 mM substrate (fructose 1,6-bisphosphate). Inhibitor concentrations were varied from 0.01 μM to 10 μM.
Mouse liver FBPase was obtained by homogenizing freshly isolated mouse liver in 100 mM Tris-HCl buffer, pH 7.4, containing 1 mM EGTA, and 10% glycerol. […] This fraction was redissolved in the homogenization buffer and desalted on a PD-10 gel filtration column (Biorad) eluted with same. This partially purified fraction was used for enzyme assays. Both rat liver and mouse liver FBPase were assayed as described for human liver FBPase.

rat hepatocytes = assay: Inhibition of gluconeogenesis in rat hepatocytes; format: cell-based; details: glucose production from lactate/pyruvate, isolated rat hepatocytes, 1 hour
Method: Hepatocytes were prepared from overnight fasted Sprague-Dawley rats (250-300 g) according to the procedure of Berry and Friend (Berry, M. N., Friend, D. S., 1969, J. Cell. Biol. 43, 506-520) as modified by Groen (Groen, A. K., Sips, H. J., Vervoorn, R. C., Tager, J. M., 1982, Eur. J. Biochem. 122, 87-93). Hepatocytes (75 mg wet weight/mL) were incubated in 1 ml Krebs-bicarbonate buffer containing 10 mM Lactate, 1 mM pyruvate, 1 mg/mL BSA, and test compound concentrations from 1 to 500 μM. Incubations were carried out in a 95% oxygen, 5% carbon dioxide atmosphere in closed, 50-mL Falcon tubes submerged in a rapidly shaking water bath (37° C.). After 1 hour, an aliquot (0.25 mL) was removed, transferred to an Eppendorf tube and centrifuged. 50 μL of supernatant was then assayed for glucose content using a Sigma Glucose Oxidase kit as per the manufacturer's instructions.

Row | SMILES | IC50 (mouse liver FBPase) [nM] | melting point | further results
1 | CC(C)(C)Cn1c(-c2ccc(P(=O)(O)O)o2)nc2c(N)ncnc21 [Compound B] | – | – | % of intravenous dose recovered in urine ([1]; intravenous approximately 10 mg/kg, 24 hour urine): 76.8%
2 | Nc1cccc2c1nc(-c1ccc(P(=O)(O)O)o1)n2Cc1ccoc1 [Compound 12.37, 4-Amino-1-(3-furanylmethyl)-2-[2-(5-phosphono)furanyl]benzimidazole] | 1270 | – | –
3 | CC(C)(C)Cn1c(-c2ccc(P(=O)(O)O)o2)nc2c(F)cccc21 [Compound 13.25, 4-Fluoro-1-neopentyl-2-(2-phosphonofuranyl)benzimidazole] | > 20000 | – | –
4 | CC(C)Cn1c(-c2ccc(P3(=O)OCC(CO)CO3)o2)nc2ccc(Cl)cc21 (stereo not drawn) [Compound 31.13, 6-Chloro-1-isobutyl-2-{5-[2-(hydroxymethyl)-propan-1,3-yl]phosphono-2-furanyl}benzimidazole] | – | – | % Oral bioavailability [1]: 10.9%
5 | CC(C)(C)Cn1c(-c2ccc(P(=O)(OCOC(=O)C(C)(C)C)OCOC(=O)C(C)(C)C)o2)nc2c(N)ncnc21 [Compound C] | – | – | % Oral bioavailability [1]: 5.3%
6 | CC(C)Cn1c(-c2ccc(P(=O)(O)O)o2)nc2c(N)c(Br)ccc21 [Compound 12.44, 4-Amino-5-bromo-1-isobutyl-2-[2-(5-phosphono)furanyl]benzimidazole] | – | – | IC50 (rat hepatocytes): 14000 nM
7 | CC(C)Cn1c(-c2ccc(P(=O)(O)O)o2)nc2c(N)c(F)c(Cl)cc21 [Compound 12.63, 4-Amino-5-fluoro-6-chloro-1-isobutyl-2-(2-phosphono-5-furanyl)benzimidazole] | – | 175 to 180 °C | IC50 (rat hepatocytes; Hepatocyte): 16000 nM
8 | CC(C)Cn1c(-c2ccc(P(=O)(O)O)o2)nc2c(N)c(Br)cc(Br)c21 [Compound 12.42, 4-Amino-5,7-dibromo-1-isobutyl-2-[2-(5-phosphono)furanyl]benzimidazole] | – | – | IC50 (rat hepatocytes): 14000 nM
9 | CC(C)Cn1c(-c2ccc(P(=O)(O)O)o2)nc2c(N)c(Cl)cc(Cl)c21 [Compound 12.50, 4-Amino-5,7-dichloro-1-isobutyl-2-(2-phosphono-5-furanyl)benzimidazole] | – | 205 to 207 °C | IC50 (rat hepatocytes; Hepatocyte): 17000 nM
10 | O=C(NCP(=O)(O)O)c1nc2ccccc2[nH]1 [Compound 13.66, N-(Phosphonomethyl)benzimidazole-2-carboxamide] | > 20000 | 258 to 260 °C | –
11 | CC(C)Cn1c(-c2ccc(P(=O)(O)O)o2)nc2c(N)c(F)cc(CCCO)c21 [Compound 12.79, 4-Amino-7-(propane-3-ol)-5-fluoro-1-isobutyl-2-(2-phosphono-5-furanyl)benzimidazole] | 720 | 170 to 173 °C | IC50 (rat hepatocytes; Hepatocyte): 1000 nM
12 | CC(C)Cn1c(-c2ccc(P(=O)(O)O)o2)nc2c(N)c(F)cc(Br)c21 [Compound 12.62, 4-Amino-5-fluoro-7-bromo-1-isobutyl-2-(2-phosphono-5-furanyl)benzimidazole] | – | 195 to 200 °C | IC50 (rat hepatocytes; Hepatocyte): 5000 nM
13 | CC(C)(C)Cn1c(-c2ccc(P(=O)(O)O)o2)nc2ccc(Cl)cc21 [Compound 13.56, 6-Chloro-1-neopentyl-2-(2-phosphono-5-furanyl)benzimidazole] | > 20000 | – | –
14 | CC(C)Cn1c(-c2ccc(P(=O)(O)O)o2)nc2c(N)c(F)cc(Cl)c21 [Compound 12.54, 4-Amino-5-fluoro-7-chloro-1-isobutyl-2-(2-phosphono-5-furanyl)benzimidazole] | 1070 | 220 to 225 °C | –
15 | CC(C)Cn1c(-c2ccc(P(=O)(O)O)o2)nc2c(N)c(F)cc(CCCBr)c21 [Compound 12.80, 4-Amino-5-fluoro-7-(3-bromopropyl)-1-isobutyl-2-(2-phosphono-5-furanyl)benzimidazole] | 300 | 190 to 195 °C (dec.) | IC50 (rat hepatocytes; Hepatocyte): 1600 nM
16 | CC(C)Cn1c(COCP(=O)(O)O)nc2c(N)c(F)cc(Br)c21 [Compound 15.1, 4-Amino-5-fluoro-7-bromo-1-isobutyl-2-(1-methoxymethyl-3-phosphono)benzimidazole] | 1500 | 200 to 202 °C (dec.) | IC50 (rat hepatocytes; Hepatocyte): 16000 nM
17 | CC(C)Cn1c(-c2ccc(P(=O)(O)O)o2)nc2c(N)c(F)cc(CCCCBr)c21 [Compound 12.82, 4-Amino-5-fluoro-7-(4-bromobutyl)-1-isobutyl-2-(2-phosphono-5-furanyl)benzimidazole] | 300 | 200 to 220 °C (dec.) | IC50 (rat hepatocytes; Hepatocyte): 2200 nM
18 | Cc1c(Cl)ccc2c1nc(-c1ccc(P(=O)(O)O)o1)n2CC(C)C [Compound 13.96, 1-Isobutyl-4-methyl-5-chloro-2-(2-phosphono-5-furanyl)benzimidazole] | 700 | – | –
19 | CC(C)Cn1c(-c2ccc(P(=O)(O)O)o2)nc2c(O)cccc21 [Compound 13.21, 4-Hydroxy-1-isobutyl-2-(2-phosphono-5-furanyl)benzimidazole] | > 20000 | 244 to 245 °C | –
20 | CC(C)Cn1c(-c2ccc(P(=O)(OCOC(=O)C(C)(C)C)OCOC(=O)C(C)(C)C)o2)nc2c(N)c(Cl)cc(Cl)c21 [Compound 18.2, 4-Amino-5,7-dichloro-1isobutyl-2-(5-furanyl-2-bispivaloyloxymethylphosphonate)benzimidazole] | – | – | IC50 (rat hepatocytes): 17000 nM
21 | CC(C)Cn1c(-c2ccc(P(=O)(O)O)o2)nc2c(Cl)cc(Cl)cc21 [Compound 13.39, 4,6-Dichloro-1-isobutyl-2-(2-phosphono-5-furanyl)benzimidazole] | – | 155 to 175 °C | –
22 | CC(C)Cn1c(-c2ccc(P(=O)(O)O)o2)nc2c(N)c(O)ccc21 [Compound 11.1, 4-Amino-5-hydroxy-1-isobutyl-2-(2-phosphono-5-furanyl)benzimidazole] | – | 206 to 209 °C | –
23 | CC(C)Cn1c(-c2ccc(P(=O)(O)O)o2)nc2cc(Cl)ccc21 [Compound 13.16, 5-Chloro-1-isobutyl-2-(2-phosphono-5-furanyl)benzimidazole] | – | 238 °C | –
24 | COC(=O)c1cccc(Cn2c(-c3ccc(P(=O)(O)O)o3)nc3c(N)cccc32)c1 [Compound 12.6, 4-Amino-1-(3-carbomethoxybenzyl)-2-[2-(5-phosphono)furanyl]benzimidazole] | > 20000 | 198 to 202 °C | –
25 | Cc1c(Cl)cc2c(nc(-c3ccc(P(=O)(O)O)o3)n2CC2CC2)c1C [Compound 13.61, 6-Chloro-4,5-dimethyl-1-cyclopropylmethyl-2-(2-phosphono-5-furanyl)benzimidazole] | > 20000 | 219 to 220 °C | –
26 | CC(C)Cn1c(-c2ccc(P(=O)(O)O)o2)nc2c(N)c(F)cc(CCCN(C)C)c21 [Compound 12.84, 4-Amino-5-fluoro-7-(3-N,N-dimethylpropylamine)-1-isobutyl-2-(2-phosphono-5-furanyl)benzimidazole hydrobromide salt] | 500 | – | –
27 | Nc1cccc2c1nc(-c1ccc(P(=O)(O)O)o1)n2CCCCl [Compound 12.35, 4-Amino-1-(3-chloropropyl)-2-[2-(5-phosphono)furanyl]benzimidazole] | > 20000 | – | –
28 | CCC(CC)n1c(-c2ccc(P(=O)(O)O)o2)nc2c(N)c(F)ccc21 [Compound 12.76, 4-Amino-5-fluoro-1-(3-pentyl)-2-(2-phosphono-5-furanyl)benzimidazole] | – | 180 to 185 °C (dec.) | –
29 | CCc1c(Cl)c(F)cc2[nH]c(-c3ccc(P(=O)(O)O)o3)nc12 [Compound 13.80, 5-Fluoro-6-chloro-7-ethyl-2-(2-phosphono-5-furanyl)benzimidazole] | – | 165 to 190 °C | –
